These results are taken from patent US6214859A, “Ethylamine derivatives” (Fujimoto Brothers Co., Ltd., priority 1997, dated 2001).

Data set [1] concerns serotonin release, raphe. The experiment in a line: Release of biogenic amines from brain tissue: serotonin, raphe. Type of data set: in vivo, Wistar rats. How it is done: (§1) The method described in Life Sci., 56, 611-620 (1995) was used. After Wistar rats were decapitated, appropriate brain samples, which were striatun, substantia nigra, tuberculum olfactorium, locus coeruleus and raphe, were removed quickly and soaked in oxygenated (95% O2 and 5% CO2) Krebs solution at 37° C. The composition of Krebs solution was as follows in […]: NaCl 111, KCl 4.7, CaCl2 2.5, MgSO4 1.64, NaHCO3 25, KH2 PO4 1.2, glucose 11, 50 mg/l ascorbic add and 20 mg/l EDTA-2 Na. The preparations, soaked in one organ bath, were as follows: 1) four pieces of striatum (each halved), 2) four pieces of substantia nigra, 3) four pieces of tuberculum olfactorium; 4) eight pieces of locus coeruleus; 5) eight pieces of raphe. After incubation of the appropriate tissue for 20 min, the Krebs solution was replaced, the tissue soaked for 20 min in Krebs solution dissolving the compounds of this invention and the amount of biogenic amine released during this period of time was estimate. The compounds of this invention and PPAP, control compound, were dissolved in saline and were administered subcutaneously before 30 min to removing brain sample. For measuring noradrenaline and dopamine, samples were purified on 60 mg alumina containing micro columns (BDH Chemicals Ltd.) according to the method described in J. Pharmacol. Exp. Ther., 138, 360-372 (1962) For measuring serotonin, samples were purified on 15 mg Sephadex G-10 micro columns (Pharmacia). Dopamine, noradrenaline and serotonin were determined by high performance liquid chromatography (Waters 746 data module) with electrochemical detection (Waters 460 electrochemical detector). Waters Resolve 5μ Spherical C18 3.9×150 mm column was used as separating column and triethylamine-phosphate buffer (pH 5.2), containing 200 mg/l octane sulfonate sodium and 18 mg/l EDTA-2 Na with 6% acetonitrile, was used as mobile phase. The release amount of appropriate amine was noted as nmol/g tissue released for 20 min. deference of means tested by Student's t-test and significant level was set at P<.05.

Data set [2] concerns dopamine release, substantia nigra. Nature of the data set: Release of biogenic amines from brain tissue: dopamine, substantia nigra. Type of data set: in vivo, Wistar rats. How it is done:
as §1

The test system of data set [3] is noradrenaline release, locus coeruleus. Nature of the data set: Release of biogenic amines from brain tissue: noradrenaline, locus coeruleus. In kind it is in vivo, Wistar rats. How it is done:
as §1

Data set [4] concerns dopamine release, striatum. Nature of the data set: Release of biogenic amines from brain tissue: dopamine, striatum. Type of data set: in vivo, Wistar rats. How it is done:
as §1

Data set [5] concerns dopamine release, tuberculum olfactorium. The experiment in a line: Release of biogenic amines from brain tissue: dopamine, tuberculum olfactorium. In kind it is in vivo, Wistar rats. How it is done: as §1
For data set [6], the target named is T1, human platelet MAO-B (Homo sapiens, UniProt P27338).
T1 construct: The suspension was used as enzyme for MAO activity assay in blood platelets; from tissue; host or cells: human blood platelets (frozen, thawed and sonicated platelet rich plasma)
T1 sequence (P27338 1-520): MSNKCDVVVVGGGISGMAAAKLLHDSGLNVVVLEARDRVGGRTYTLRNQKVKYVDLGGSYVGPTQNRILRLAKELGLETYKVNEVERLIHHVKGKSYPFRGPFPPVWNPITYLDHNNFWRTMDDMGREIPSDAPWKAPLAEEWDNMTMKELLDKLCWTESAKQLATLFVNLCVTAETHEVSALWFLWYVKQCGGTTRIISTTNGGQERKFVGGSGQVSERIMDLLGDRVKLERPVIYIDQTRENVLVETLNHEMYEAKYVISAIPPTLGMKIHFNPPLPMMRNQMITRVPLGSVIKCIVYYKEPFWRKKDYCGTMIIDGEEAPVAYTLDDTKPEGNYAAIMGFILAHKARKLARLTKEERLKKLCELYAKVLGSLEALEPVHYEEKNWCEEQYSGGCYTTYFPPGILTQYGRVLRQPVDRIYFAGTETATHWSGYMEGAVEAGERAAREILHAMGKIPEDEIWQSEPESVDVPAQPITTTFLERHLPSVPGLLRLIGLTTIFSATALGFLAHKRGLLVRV
Nature of the data set: biochemical. The conditions noted are these: 10^-5 M; read-out: Inhibition rate of MAO-B. How it is done:
Human blood added with 3.8% citric acid was centrifuged at 950 rpm for 10 min and platelet rich plasma (PRP) was obtained. The residual blood cell was centrifuged at 3,000 rpm for 10 min and platelet poor plasma (PPP) was obtained. After blood platelets were measured from a part of PRP, PRP and PPP were frozen at -20° C. They were thawed and were sonicated to be dispersed and suspended when MAO activity was measured. The suspension was used as enzyme for MAO activity assay in blood platelets. In addition, almost all of MAO in blood platelets have been known to be B type.
MAO-B activity was determined according to the method described in Biochem. Pharmacol., 14, 1684-1685 (1965). […] The mixture was incubated at 37° C. for 5 min. After 80 μl of PRP or PPP was added to it, the mixture was incubated at 37° C. for 20 min. Thereafter, 120 μl of substrate (0.33 mg/ml kynuramine dihydrobromide) was added thereto. After incubation at 37° C. for 30 min, 800 μl of 10% trichloroacetic acid were added to stop the reaction and the solution was centrifuged at 3,000 rpm for 10 min. To 1 ml of the supernatant, 2 ml of 1 N NaOH was added and fluorescence of the solution was measured at Ex 312 nm and Em 380 nm. PRP was prepared to 250,000 cell/μl as amounts of blood platelets with […] phosphate buffer solution and 4-hydroxyquinoline was used as standard for measurement.

Data set [7] can be described thus: Toxicity screening using primary cultured hepatocyte (LDH release). Type of data set: cell-based, rat. The conditions noted are these: rat, primary hepatocytes, 24 hr, control 0.5% saline or 0.5% DMSO, read-out: Percent control of LDH release. How it is done:
The hepatocytes was prepared from rat liver by collagenase perfusion method and suspension containing 5×10^5 cells/ml were prepared. After cultivation for 24 hr, the suspension was exchanged to the William's Medium E (GIBCO BRL) containing 10 or 100 μM of the compounds of this invention. After cultivation for 24 hr, the activity of lactate dehydrogenase (LDH) released in the medium was measured.

The subject of data set [8] is rats reduced learning ability by tetrabenazine. The experiment in a line: Conditioned avoidance task in the shuttle box (tetrabenazine-treated rats). Type of data set: in vivo, rat. The conditions noted are these: tetrabenazine 1 mg/kg s.c., significance and direction. How it is done:
The method described in Life Sci., 58, 817-827 (1996) was used. The effects on conditioned avoidance reflex (CARs) was analyzed in the shuttle box using male and female rats (weighing 200-220 g) whose leaning abilities were reduced by treatment of tetrabenazine. The instrument was constructed, according to the device described in Psychopharmacologia 10, 1-5 (1966) by the Research Institute for Electrical Industry (Budapest, Hungary). The male and female rats (weighing 200-220 g) were trained to cross the berrier under the influence of a conditioned stimulus (CS) (light flash and buzzer sounds). […] And the performance which was not related to this condition was noted as an intersignal reaction (IR). The rats were trained with 100 trials per day for 5 days. One trial consisted of 15 sec intertrial interval. The saline solution of tetrabenazine was administered at a dose of 1 mg/kg subcutaneously before one hour prior to the test and then the solution of the compounds of this invention were administered at the doses of 1, 2, 2.5 and 5 mg/kg subcutaneously with the simultaneous administration of tetrabenazine. The nmbers of CARs, EFs and IRs were automatically counted and evaluated by multi-way analysis of variance (ANOVA).

As to `CCCNC(CCC)Cc1cccc2ccccc12` (stereo not shown) [Compound No. 5, 1-(1-Naphthyl)-2-propylaminopentane], the “Release of serotonin, raphe” value in data set [1] (0.25 mg/kg s.c.) was 0.425 ± 0.02 nmol/g tissue, for 20 min; in data set [1] (1.00 mg/kg s.c.), 0.571 ± 0.01 nmol/g tissue, for 20 min. Also, the “Release of dopamine, substantia nigra” value is 5.6 ± 0.18 nmol/g tissue, for 20 min in data set [2] (0.25 mg/kg s.c.) and 4.4 ± 0.16 nmol/g tissue, for 20 min in data set [2] (1.00 mg/kg s.c.). Further, the “Release of noradrenaline, locus coeruleus” value (“Release of noradrenaline” for short) is 3.9 ± 0.25 nmol/g tissue, for 20 min in data set [3] (0.25 mg/kg s.c.) and 4.4 ± 0.50 nmol/g tissue, for 20 min in data set [3] (1.00 mg/kg s.c.). For the same molecule, the “Release of dopamine, striatum” value in data set [4] (0.25 mg/kg s.c.) is listed as 4.3 ± 0.14 nmol/g tissue, for 20 min; in data set [4] (1.00 mg/kg s.c.) it was 3.2 ± 0.14 nmol/g tissue, for 20 min. The “Release of dopamine, tuberculum olfactorium” value in data set [5] (0.25 mg/kg s.c.) is listed as 6.0 ± 0.16 nmol/g tissue, for 20 min; in data set [5] (1.00 mg/kg s.c.) it was 4.6 ± 0.13 nmol/g tissue, for 20 min. The inhibition at 10 µM in data set [6] came to 17.3%. In addition, the activity at 24 h, 10 µM in data set [7] was determined as 111 ± 4.02%. In addition, the activity at 24 h, 100 µM in data set [7] worked out at 195 ± 9.16%.
Turning to `CCCC(Cc1ccc2ccccc2c1)NCC` (stereo not shown) [Compound No. 6], the “Release of serotonin, raphe” value in data set [1] (1.00 mg/kg s.c.) was 0.708 ± 0.07 nmol/g tissue, for 20 min. In addition, in data set [8] (1 mg/kg s.c.), the “Condition Avoidance Reflex (CARs)” value was “**** .Arrow-up bold” and the “Escape Failures (EFs)” value is given as “* .dwnarw”. Further, in data set [8] (5 mg/kg s.c.), the “Condition Avoidance Reflex (CARs)” value was “**** .Arrow-up bold” and the “Escape Failures (EFs)” value was “* .dwnarw”. Further, in data set [2] (1.00 mg/kg s.c.), the “Release of dopamine, substantia nigra” value is listed as 6.7 ± 0.26 nmol/g tissue, for 20 min. Besides, the “Release of noradrenaline” value in data set [3] (1.00 mg/kg s.c.) is 3.1 ± 0.05 nmol/g tissue, for 20 min. Moreover, the “Release of dopamine, striatum” value in data set [4] (1.00 mg/kg s.c.) is listed as 3.6 ± 0.12 nmol/g tissue, for 20 min. Besides, the “Release of dopamine, tuberculum olfactorium” value in data set [5] (1.00 mg/kg s.c.) is listed as 5.3 ± 0.19 nmol/g tissue, for 20 min. Also, in data set [6], the inhibition at 10 µM came out at 24.5%.
For `CCCNC(CC)Cc1ccc2ccccc2c1` (stereo not shown) [Compound No. 10], the “Release of serotonin, raphe” value in data set [1] (1.00 mg/kg s.c.) is 0.603 ± 0.10 nmol/g tissue, for 20 min. For the same molecule, the “Release of dopamine, substantia nigra” value in data set [2] (1.00 mg/kg s.c.) is reported as 6.2 ± 0.31 nmol/g tissue, for 20 min. Further, in data set [3] (1.00 mg/kg s.c.), the “Release of noradrenaline” value is reported as 2.9 ± 0.15 nmol/g tissue, for 20 min. Further, the “Release of dopamine, striatum” value in data set [4] (1.00 mg/kg s.c.) is given as 3.3 ± 0.22 nmol/g tissue, for 20 min. In data set [5] (1.00 mg/kg s.c.), the “Release of dopamine, tuberculum olfactorium” value was 5.6 ± 0.35 nmol/g tissue, for 20 min. In addition, the inhibition at 10 µM in data set [6] was found to be 37.2%.
Consider `CCCNC(CCC)Cc1cccc2c1OCO2.Cl` (stereo not shown) [Compound No. 28, 1-(1,3-Benzodioxol-4-yl)-2-propylaminopentane Hydrochloride], for which the “Release of serotonin, raphe” value is reported as 1.031 ± 0.03 nmol/g tissue, for 20 min in data set [1] (0.25 mg/kg s.c.); 1.017 ± 0.06 nmol/g tissue, for 20 min in data set [1] (1.00 mg/kg s.c.); 1.436 ± 0.01 nmol/g tissue, for 20 min in data set [1] (5.00 mg/kg s.c.). Besides, the “Condition Avoidance Reflex (CARs)” value is given as “* .Arrow-up bold” in data set [8] (1 mg/kg s.c.), “**** .Arrow-up bold” in data set [8] (2.5 mg/kg s.c.) and “**** .Arrow-up bold” in data set [8] (5 mg/kg s.c.). Further, the results for the “Escape Failures (EFs)” value in data set [8] (2.5 mg/kg s.c.) and in data set [8] (5 mg/kg s.c.) were “**** .dwnarw” and “*** .dwnarw”, respectively. In addition, the “Release of dopamine, substantia nigra” value was 6.1 ± 0.35 nmol/g tissue, for 20 min in data set [2] (0.25 mg/kg s.c.); 5.4 ± 0.27 nmol/g tissue, for 20 min in data set [2] (1.00 mg/kg s.c.); 4.9 ± 0.17 nmol/g tissue, for 20 min in data set [2] (5.00 mg/kg s.c.). Moreover, the “Release of noradrenaline” value in data set [3] (0.25 mg/kg s.c.) is recorded as 3.6 ± 0.35 nmol/g tissue, for 20 min; in data set [3] (1.00 mg/kg s.c.), 3.7 ± 0.10 nmol/g tissue, for 20 min; in data set [3] (5.00 mg/kg s.c.), 3.9 ± 0.10 nmol/g tissue, for 20 min. Also, the “Release of dopamine, striatum” value in data set [4] (0.25 mg/kg s.c.) was 3.4 ± 0.16 nmol/g tissue, for 20 min; in data set [4] (1.00 mg/kg s.c.), 4.0 ± 0.18 nmol/g tissue, for 20 min; in data set [4] (5.00 mg/kg s.c.), 3.1 ± 0.13 nmol/g tissue, for 20 min. Moreover, the “Release of dopamine, tuberculum olfactorium” value is on record as 3.8 ± 0.22 nmol/g tissue, for 20 min in data set [5] (0.25 mg/kg s.c.); 4.6 ± 0.22 nmol/g tissue, for 20 min in data set [5] (1.00 mg/kg s.c.); 3.1 ± 0.14 nmol/g tissue, for 20 min in data set [5] (5.00 mg/kg s.c.). Further, in data set [6], the inhibition at 10 µM came out at 22.2%. The activity at 24 h, 10 µM in data set [7] was determined as 93 ± 6.92%. Moreover, the activity at 24 h, 100 µM in data set [7] is 148 ± 6.55%.
